The supplement of paper PMC10307832

Key:
Experiment in all cases: relative viability (nuclei count vs DMSO), 5 days (fraction); higher = more cells survive
[1] = compound: C1CNCCC1C2=CC(=NN2)C3=CC=NC=C3 + CCNC(=O)c1noc(-c2cc(C(C)C)c(O)cc2O)c1-c1ccc(CN2CCOCC2)cc1 [Luminespib] (partner 0.01 µM)
Summary of the method: (§1)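 For relative viability, nuclei counts in treated wells were divided by those in vehicle wells. Lung cancer cell lines had been pin-tool dosed in 1536-well plates the day after seeding and cultured for 5 days, then fixed and stained in one step (final 0.05% Triton X-100, 1% formaldehyde, 1 ug/ml Hoechst) and imaged at 4×. Doses were one drug alone or a fixed anchor-drug dose plus five library-drug doses (not always all listed) in √10 steps, and values are duplicate-plate medians.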

[2] = compound: C[C@@H](N)c1ccc(C(=O)Nc2ccnc3[nH]ccc23)cc1 + O=C(CCCCCCC(=O)Nc1ccccc1)NO [Vorinostat] (partner 1 µM)
Summary of the method: as §1

[3] = compound: O[C@H]1CC[C@H](Nc2ncc3nc(Nc4c(F)cc(F)cc4F)n([C@H]4CCOC4)c3n2)CC1 [Tanzisertib] + CS(=O)(=O)N1CCN(Cc2cc3nc(-c4cccc5[nH]ncc45)nc(N4CCOCC4)c3s2)CC1 [Pictilisib] (partner 1 µM)
Summary of the method: as §1

[4] = compound: O[C@H]1CC[C@H](Nc2ncc3nc(Nc4c(F)cc(F)cc4F)n([C@H]4CCOC4)c3n2)CC1 [Tanzisertib] + O=C(CCCCCCC(=O)Nc1ccccc1)NO [Vorinostat] (partner 1 µM)
Summary of the method: as §1

| Cell Line | relative viability ([1]; first compound 0.08 µM) | relative viability ([1]; first compound 0.8 µM) | relative viability ([1]; first compound 2.53 µM) | relative viability ([1]; first compound 8 µM) | relative viability ([2]; first compound 0.04 µM) | relative viability ([2]; first compound 0.1265 µM) | relative viability ([2]; first compound 0.4 µM) | relative viability ([2]; first compound 1.265 µM) | relative viability ([2]; first compound 4 µM) | relative viability ([3]; first compound 0.08 µM) | relative viability ([3]; first compound 0.253 µM) | relative viability ([3]; first compound 0.8 µM) | relative viability ([3]; first compound 2.53 µM) | relative viability ([3]; first compound 8 µM) | relative viability ([4]; first compound 0.08 µM) | relative viability ([4]; first compound 0.253 µM) | relative viability ([4]; first compound 0.8 µM) | relative viability ([4]; first compound 2.53 µM) | relative viability ([4]; first compound 8 µM) |
| --- | --- | --- | --- | --- | --- | --- | --- | --- | --- | --- | --- | --- | --- | --- | --- | --- | --- | --- | --- |
| NCI-H838 | 0.315 | 0.355 | 0.281 | 0.302 | 0.763 | 0.657 | 0.583 | 0.41 | 0.307 | 0.564 | 0.424 | 0.493 | 0.536 | 0.493 | 0.745 | 0.73 | 0.733 | 0.676 | 0.651 |
| NCI-H1355 | 0.64 | 0.818 | 0.696 | 0.766 | 0.663 | 0.626 | 0.686 | 0.583 | 0.57 | 0.455 | 0.417 | 0.46 | 0.461 | 0.306 | 0.722 | 0.608 | 0.642 | 0.67 | 0.628 |
| NCI-H1395 | 0.771 | 0.692 | 0.563 | 0.764 | 0.622 | 0.772 | 0.704 |  | 0.796 | 0.592 | 0.735 | 0.568 | 0.589 | 0.533 | 0.642 | 1.13 | 0.768 | 0.72 | 0.481 |
| NCI-H1437 | 1.1 | 1.16 | 1.09 | 1.14 | 0.882 | 0.874 | 0.991 | 1.02 | 1.03 | 0.445 | 0.492 | 0.452 | 0.486 | 0.565 | 0.876 | 0.896 | 0.88 | 0.895 | 0.97 |
| NCI-H1650 | 0.246 | 0.209 | 0.201 | 0.223 | 0.7 | 0.663 | 0.675 | 0.663 | 0.648 | 0.656 | 0.538 | 0.666 | 0.586 | 0.438 | 0.551 | 0.601 | 0.501 | 0.625 | 0.491 |
| NCI-H1651 | 0.719 | 1.11 | 0.807 | 0.838 | 0.603 | 0.526 | 0.647 | 0.586 | 0.561 | 0.562 | 0.579 | 0.581 | 0.6 | 0.583 | 0.575 | 0.603 | 0.513 | 0.517 | 0.549 |
| NCI-H1666 | 0.921 | 1.11 | 1.05 | 1.01 | 1.1 | 1.05 | 1.22 | 1.5 | 1.31 | 0.494 | 0.588 | 0.414 | 0.546 | 0.439 | 1.03 | 0.988 | 1.11 | 1.01 | 1.05 |
| NCI-H1734 | 0.183 | 0.201 | 0.195 | 0.219 | 0.701 | 0.791 | 0.823 | 0.576 | 0.806 | 0.534 | 0.405 | 0.45 | 0.454 | 0.382 | 0.966 | 0.781 | 0.756 | 0.906 | 0.81 |
| NCI-H1755 | 0.301 |  | 0.417 | 0.64 | 0.672 | 0.737 | 0.75 | 0.811 | 0.826 | 0.47 | 0.456 | 0.433 | 0.429 | 0.331 | 0.756 | 0.791 | 0.828 | 0.624 | 0.79 |
